According to patent publication US12091426B2, “Bifunctional degraders of hematopoietic progenitor kinase and therapeutic uses thereof” (Nurix Therapeutics, Inc., priority 2021, dated 2024):

Target: T1, HPK1 (Homo sapiens, UniProt Q92918)
T1 construct: A HiBiT tag was introduced by CRISPR on the N terminus of HPK1 in Jurkat cells; host or cells: Jurkat cells (ATCC TIB-152), monoclonal line with CRISPR knock-in of HiBiT at the endogenous HPK1 locus
Experiment: HPK1 Cellular HiBit Degradation Assay
Format: cell-based
Details: HiBiT HPK1 Jurkat cells, 24 hrs; for DC50: concentration at which 50% of HPK1 was remaining, read-out: DC50 Category; for Dmax: Jurkat, maximum degradation vs DMSO vehicle control, read-out: Dmax Category
Summary of the method: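 Jurkat cells with CRISPR knock-in N-terminal HiBiT-HPK1 were treated with CTMs (11-point, 3.16-fold, 10 uM to 0.1 nM final) for 24 hrs at 37° C. HiBiT lytic luminescence, with parental Jurkat as background and DMSO as 100%, gave % HPK1 remaining; four-parameter fit yielded DC50 and Dmax (100 minus lowest % remaining).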

T1 sequence (Q92918 whole entry): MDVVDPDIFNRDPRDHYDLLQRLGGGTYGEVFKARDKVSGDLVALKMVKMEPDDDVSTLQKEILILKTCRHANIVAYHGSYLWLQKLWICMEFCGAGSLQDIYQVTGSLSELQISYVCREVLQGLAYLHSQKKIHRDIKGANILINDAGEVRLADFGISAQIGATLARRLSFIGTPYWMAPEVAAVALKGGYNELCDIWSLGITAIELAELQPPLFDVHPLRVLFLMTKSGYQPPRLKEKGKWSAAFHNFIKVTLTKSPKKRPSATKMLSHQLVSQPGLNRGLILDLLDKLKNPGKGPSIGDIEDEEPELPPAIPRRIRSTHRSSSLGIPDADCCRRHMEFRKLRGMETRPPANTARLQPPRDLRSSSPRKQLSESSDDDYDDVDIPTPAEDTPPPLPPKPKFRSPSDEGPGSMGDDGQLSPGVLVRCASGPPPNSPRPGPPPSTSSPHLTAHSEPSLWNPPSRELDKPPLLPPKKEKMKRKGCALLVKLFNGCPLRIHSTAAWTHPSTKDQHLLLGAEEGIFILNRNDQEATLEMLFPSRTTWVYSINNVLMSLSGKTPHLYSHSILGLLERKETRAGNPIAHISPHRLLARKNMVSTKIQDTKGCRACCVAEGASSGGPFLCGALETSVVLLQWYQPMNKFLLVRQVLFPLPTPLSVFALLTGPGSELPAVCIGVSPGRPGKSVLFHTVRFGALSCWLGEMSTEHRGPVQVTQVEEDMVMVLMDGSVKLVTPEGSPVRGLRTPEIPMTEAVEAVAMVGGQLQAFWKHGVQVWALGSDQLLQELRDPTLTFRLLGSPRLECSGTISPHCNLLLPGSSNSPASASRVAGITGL

Row | Structure (SMILES) | DC50 [nM] | Dmax [%]
1 | CC(C)n1cnc2cc(-c3ccc4c(c3)N([C@H]3C[C@@H](N5CCCCC5)C3)C(=O)C43CCN(C(=O)C4CCN(C(=O)[C@H]5CC[C@H](Nc6cccc7c6C(=O)N(C6CCC(=O)NC6=O)C7=O)CC5)CC4)CC3)nc(NC3CC3)c21 (mixture of isomers) [Example 56, 2-[(3RS)-2,6-dioxopiperidin-3-yl]-4-{[(1R,4R)-4-[4-({6-[4-(cyclopropylamino)-3-(propan-2-yl)-3H-imidazo[4,5-c]pyridin-6-yl]-2-oxo-1-[(1S,3S)-3-(piperidin-1-yl)cyclobutyl]-1,2-dihydrospiro[indole-3,4′-piperidin]-1′-yl}carbonyl)piperidine-1-carbonyl]cyclohexyl]amino}-2,3-dihydro-1H-isoindole-1,3-dione] | 500 to 1000 | 50 to 70
2 | CC(C)n1cnc2cc(-c3ccc4c(c3)N([C@H]3C[C@@H](N5CCCCC5)C3)C(=O)C43CCN(C(=O)C4CCN(C(=O)[C@H]5CC[C@H](Nc6cccc7c6C(=O)N(C6CCC(=O)NC6=O)C7=O)CC5)CC4)CC3)nc(Nc3ccccc3F)c21 (mixture of isomers) [Example 57, 2-[(3RS)-2,6-dioxopiperidin-3-yl]-4-{[(1R,4R)-4-{4-[(6-{4-[(2-fluorophenyl)amino]-3-(propan-2-yl)-3H-imidazo[4,5-c]pyridin-6-yl}-2-oxo-1-[(1S,3S)-3-(piperidin-1-yl)cyclobutyl]-1,2-dihydrospiro[indole-3,4′-piperidin]-1′-yl)carbonyl]piperidine-1-carbonyl}cyclohexyl]amino}-2,3-dihydro-1H-isoindole-1,3-dione] | 100 to 500 | 70 to 85
3 | CC(C)n1cnc2cc(-c3ccc4c(c3)N([C@H]3C[C@@H](N5CCCCC5)C3)C(=O)C43CCN(C(=O)C4CCN(C(=O)[C@H]5CC[C@H](Nc6cncc(C7CCC(=O)NC7=O)c6)CC5)CC4)CC3)nc(Nc3ccccc3F)c21 (mixture of isomers) [Example 58, (3RS)-3-(5-{[(1R,4R)-4-{4-[(6-{4-[(2-fluorophenyl)amino]-3-(propan-2-yl)-3H-imidazo[4,5-c]pyridin-6-yl}-2-oxo-1-[(1S,3S)-3-(piperidin-1-yl)cyclobutyl]-1,2-dihydrospiro[indole-3,4′-piperidin]-1′-yl)carbonyl]piperidine-1-carbonyl}cyclohexyl]amino}pyridin-3-yl)piperidine-2,6-dione] | 100 to 500 | 50 to 70
4 | CC(C)n1cnc2cc(-c3ccc4c(c3)N([C@H]3C[C@@H](N5CCCCC5)C3)C(=O)C43CCN(C(=O)C4CCN(C(=O)[C@H]5CC[C@H](Oc6ccc(C7CCC(=O)NC7=O)cc6)CC5)CC4)CC3)nc(NC3CC3)c21 (mixture of isomers) [Example 59, (3RS)-3-(4-{[(1R,4R)-4-[4-({6-[4-(cyclopropylamino)-3-(propan-2-yl)-3H-imidazo[4,5-c]pyridin-6-yl]-2-oxo-1-[(1S,3S)-3-(piperidin-1-yl)cyclobutyl]-1,2-dihydrospiro[indole-3,4′-piperidin]-1′-yl}carbonyl)piperidine-1-carbonyl]cyclohexyl]oxy}phenyl)piperidine-2,6-dione] | < 100 | 50 to 70
5 | CC(C)n1cnc2cc(-c3ccc4c(c3)N([C@H]3C[C@@H](N5CCCCC5)C3)C(=O)C43CCN(C(=O)C4CCN(C(=O)[C@H]5CC[C@H](Oc6ccc(C7CCC(=O)NC7=O)cc6)CC5)CC4)CC3)nc(Nc3ccccc3F)c21 (mixture of isomers) [Example 60, (3RS)-3-(4-{[(1R,4R)-4-{4-[(6-{4-[(2-fluorophenyl)amino]-3-(propan-2-yl)-3H-imidazo[4,5-c]pyridin-6-yl}-2-oxo-1-[(1S,3S)-3-(piperidin-1-yl)cyclobutyl]-1,2-dihydrospiro[indole-3,4′-piperidin]-1′-yl)carbonyl]piperidine-1-carbonyl}cyclohexyl]oxy}phenyl)piperidine-2,6-dione] | < 100 | 70 to 85
6 | CC(C)n1cnc2cc(-c3ccc4c(c3)N([C@H]3C[C@@H](N5CCCCC5)C3)C(=O)C43CCN(C(=O)C4CCN(C(=O)[C@H]5CC[C@H](Oc6ccc(C7CCC(=O)NC7=O)cc6)CC5)CC4)CC3)nc(Nc3ccncc3F)c21 (mixture of isomers) [Example 61, (3RS)-3-(4-{[(1R,4R)-4-{4-[(6-{4-[(3-fluoropyridin-4-yl)amino]-3-(propan-2-yl)-3H-imidazo[4,5-c]pyridin-6-yl}-2-oxo-1-[(1S,3S)-3-(piperidin-1-yl)cyclobutyl]-1,2-dihydrospiro[indole-3,4′-piperidin]-1′-yl)carbonyl]piperidine-1-carbonyl}cyclohexyl]oxy}phenyl)piperidine-2,6-dione] | < 100 | 50 to 70
7 | CC(C)n1cnc2cc(-c3ccc4c(c3)N([C@H]3C[C@@H](N5CCCCC5)C3)C(=O)C43CCN(C(=O)C4CCN(C(=O)[C@H]5CC[C@H](Oc6ccc(C7CCC(=O)NC7=O)cn6)CC5)CC4)CC3)nc(Nc3ccccc3F)c21 (mixture of isomers) [Example 62, (3RS)-3-(6-{[(1R,4R)-4-{4-[(6-{4-[(2-fluorophenyl)amino]-3-(propan-2-yl)-3H-imidazo[4,5-c]pyridin-6-yl}-2-oxo-1-[(1S,3S)-3-(piperidin-1-yl)cyclobutyl]-1,2-dihydrospiro[indole-3,4′-piperidin]-1′-yl)carbonyl]piperidine-1-carbonyl}cyclohexyl]oxy}pyridin-3-yl)piperidine-2,6-dione] | 100 to 500 | 50 to 70
8 | CC(C)n1cnc2cc(-c3ccc4c(c3)N([C@H]3C[C@@H](N5CCCCC5)C3)C(=O)C43CCN(C(=O)C4CCN(C(=O)[C@H]5CC[C@H](Cn6cc7cc(C8CCC(=O)NC8=O)ccc7n6)CC5)CC4)CC3)nc(Nc3ccccc3F)c21 (mixture of isomers) [Example 63, (3RS)-3-(2-{[(1R,4R)-4-{4-[(6-{4-[(2-fluorophenyl)amino]-3-(propan-2-yl)-3H-imidazo[4,5-c]pyridin-6-yl}-2-oxo-1-[(1S,3S)-3-(piperidin-1-yl)cyclobutyl]-1,2-dihydrospiro[indole-3,4′-piperidin]-1′-yl)carbonyl]piperidine-1-carbonyl}cyclohexyl]methyl}-2H-indazol-5-yl)piperidine-2,6-dione] | < 100 | 50 to 70
9 | CC(C)n1cnc2cc(-c3ccc4c(c3)N([C@H]3C[C@@H](N5CCCCC5)C3)C(=O)C43CCN(C(=O)C4CCN(C(=O)[C@H]5CC[C@H](Cn6ncc7cc(C8CCC(=O)NC8=O)ccc76)CC5)CC4)CC3)nc(Nc3ccccc3F)c21 (mixture of isomers) [Example 64, (3RS)-3-(1-{[(1R,4R)-4-{4-[(6-{4-[(2-fluorophenyl)amino]-3-(propan-2-yl)-3H-imidazo[4,5-c]pyridin-6-yl}-2-oxo-1-[(1S,3S)-3-(piperidin-1-yl)cyclobutyl]-1,2-dihydrospiro[indole-3,4′-piperidin]-1′-yl)carbonyl]piperidine-1-carbonyl}cyclohexyl]methyl}-1H-indazol-5-yl)piperidine-2,6-dione] | < 100 | 70 to 85
10 | CC(C)n1cnc2cc(-c3ccc4c(c3)N([C@H]3C[C@@H](N5CCCCC5)C3)C(=O)C43CCN(C(=O)C4CCN(C(=O)[C@H]5CCN(c6ccc(C7CCC(=O)NC7=O)cn6)C5)CC4)CC3)nc(Nc3ccccc3F)c21 (mixture of isomers) [Example 65, (3RS)-3-{6-[(3S)-3-{4-[(6-{4-[(2-fluorophenyl)amino]-3-(propan-2-yl)-3H-imidazo[4,5-c]pyridin-6-yl}-2-oxo-1-[(1S,3S)-3-(piperidin-1-yl)cyclobutyl]-1,2-dihydrospiro[indole-3,4′-piperidin]-1′-yl)carbonyl]piperidine-1-carbonyl}pyrrolidin-1-yl]pyridin-3-yl}piperidine-2,6-dione] | 100 to 500 | 70 to 85
11 | CC(C)n1cnc2cc(-c3ccc4c(c3)N([C@H]3C[C@@H](N5CCCCC5)C3)C(=O)C43CCN(C(=O)C4CCN(C(=O)C5CCN(c6ccc(C7CCC(=O)NC7=O)cc6)CC5)CC4)CC3)nc(Nc3ccccc3F)c21 (mixture of isomers) [Example 67, (3RS)-3-[4-(4-{4-[(6-{4-[(2-fluorophenyl)amino]-3-(propan-2-yl)-3H-imidazo[4,5-c]pyridin-6-yl}-2-oxo-1-[(1S,3S)-3-(piperidin-1-yl)cyclobutyl]-1,2-dihydrospiro[indole-3,4′-piperidin]-1′-yl)carbonyl]piperidine-1-carbonyl}piperidin-1-yl)phenyl]piperidine-2,6-dione] | < 100 | 70 to 85
12 | Cc1cc(F)c(Nc2nc(-c3ccc4c(c3)N([C@H]3C[C@@H](N5CCCCC5)C3)C(=O)C43CCN(C(=O)C4CCN(C(=O)C5CCN(c6ccc(C7CCC(=O)NC7=O)cn6)CC5)CC4)CC3)cc3ncn(C(C)C)c23)cc1C(=O)NC(C)C (mixture of isomers) [Example 72, 5-[(6-{1′-[1-(1-{5-[(3RS)-2,6-dioxopiperidin-3-yl]pyridin-2-yl}piperidine-4-carbonyl)piperidine-4-carbonyl]-2-oxo-1-[(1S,3S)-3-(piperidin-1-yl)cyclobutyl]-1,2-dihydrospiro[indole-3,4′-piperidin]-6-yl}-3-(propan-2-yl)-3H-imidazo[4,5-c]pyridin-4-yl)amino]-4-fluoro-2-methyl-N-(propan-2-yl)benzamide] | 100 to 500 | 70 to 85
13 | CC(C)n1cnc2cc(-c3ccc4c(c3)N([C@H]3C[C@@H](N5CCCCC5)C3)C(=O)C43CCN(C(=O)C4CCN(C(=O)C5CCN(c6ccc(C7CCC(=O)NC7=O)cn6)CC5)CC4)CC3)nc(Nc3ccccc3F)c21 (mixture of isomers) [Example 74, (3RS)-3-[6-(4-{4-[(6-{4-[(2-fluorophenyl)amino]-3-(propan-2-yl)-3H-imidazo[4,5-c]pyridin-6-yl}-2-oxo-1-[(1S,3S)-3-(piperidin-1-yl)cyclobutyl]-1,2-dihydrospiro[indole-3,4′-piperidin]-1′-yl)carbonyl]piperidine-1-carbonyl}piperidin-1-yl)pyridin-3-yl]piperidine-2,6-dione] | < 100 | > 85
